Experimental findings from US12144864B2, “Tubulysins and protein-tubulysin conjugates” (Regeneron Pharmaceuticals, Inc., priority 2018, dated 2024) are described below.

Like-named read-outs stand apart in the source and are kept apart here. Bounds are passed on as bounds.

Test [1] has as its system C4-2 cells. Briefly: Cell-based killing assay of payloads (CellTiter-Glo), C4-2 cells. More on the design: species or system human. The note with it: 5-day incubation; for IC50: Homo sapiens, C4-2, 120 h, average ± SD where replicates; for C4-2 % Kill: at maximum concentration tested (100 − % viable cells). The essentials:
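Viability readout is CellTiter-Glo luminescence after a 5-day exposure to 10-point, threefold-diluted payloads spanning 100 nM–[…], following overnight attachment of 4000 cells/well. Four-parameter logistic fit gives IC50 in M; % kill taken at highest concentration tested.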
(In general: ATP-based viability assays read luminescence as a measure of living cells.)

The subject of test [2] is T47D cells. Briefly: Cell-based killing assay of payloads (CellTiter-Glo), T47D cells. Also noted: species or system human. The note with it: 5-day incubation; for IC50: Homo sapiens, T47D, 120 h; for T47D % Kill: at maximum concentration tested. The method, then: (§1) To test the ability of the disclosed tubulysin payloads to kill human cell lines, an in vitro cytotoxicity assay was performed. In vitro cytotoxicity of the disclosed payloads, as well as reference compounds, were evaluated using the CellTiter-Glo Assay Kit (Promega, Cat #G7573), in which the quantity of ATP present is used to determine the number of viable cells in culture. For the assay, C4-2, HEK293, or T47D cells were seeded at 4000 cells/well on Nunclon white 96-well plates in complete growth medium (DME high glucose:Ham's F12 at 4:1, 10% FBS, 100 units/ml Penicillin, 100 ug/ml streptomycin, 53 ug/ml glutatmine, 10 ug/ml insulin, 220 ng/ml biotin, 12.5 pg/ml T3, 12.5 ug/ml Adenine, 4 ug/ml transferrin for C42 cells; DME high glucose, 10% FBS, 100 units/ml Penicillin, 100 ug/ml streptomycin, 53 ug/ml glutatmine for HEK293; RPMI, 10% FBS, 100 units/ml Penicillin, 100 ug/ml streptomycin, 53 ug/ml glutatmine, 10 ug/ml insulin, 10 mM HEPEs, 200 nM Sodium Pyruvate for T47D cells) and grown overnight at 37° C. in 5% CO2. For cell viability curves, 1:3 serially diluted payloads were added to the cells at final concentrations ranging from 100 nM to […], including a no treatment control group, and were then incubated for 5 days. After the 5-day incubation, cells were incubated at room temperature with 100 μL of CellTiter-Glo reagents for 10 minutes. Relative luminescence units (RLU) were determined on a Victor plate reader (PerkinElmer). The IC50 values were determined from a four-parameter logistic equation over a 10-point response curve (GraphPad Prism). All IC50 values are expressed in molar (M) concentration. The percent cell killing (% kill) at the maximum concentration tested was estimated from the following formula (100−% viable cells). Averages±standard deviation (SD) are included where replicate experiments were performed.

In test [3] the test system is HEK293 cells. Kind of test: Cell-based killing assay of payloads (CellTiter-Glo), HEK293 cells. Also noted: species or system human. The note with it: 5-day incubation; for IC50: Homo sapiens, HEK293, 120 h; for HEK293 % Kill: at maximum concentration tested. The procedure:
as §1

Test [4] has as its system HCT15 cells. Kind of test: cells. The test is classed as cell-based, human. The note with it: HCT15 cells; for HCT-15 + verapamil % Kill / HCT-15 % Kill: maximum % cell killing. The procedure, abridged:
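Five-day exposure of 1000 HCT15 cells/well to threefold payload dilutions, run both plus and minus verapamil (5 ug/mL) in RPMI with 10% FBS. ATP luminescence (CellTiter-Glo) gives viability; four-parameter logistic fit of 10 points yields IC50, and 100 − % viable at highest dose gives % kill.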

[5] abbreviates: with 5 ug/mL Verapamil, read-out: HCT-15 + verapamil IC50.
Setting [6] is: Homo sapiens, HCT-15, without Verapamil, read-out: HCT-15 IC50.

In the case of `CCCCCCNC(=O)O[C@H](C[C@H](C(C)C)N(OCCCCCC)C(=O)[C@@H](NC(=O)[C@H]1CCCCN1C)[C@@H](C)CC)c1nc(C(=O)N[C@@H](Cc2ccc(O)cc2)C[C@H](C)C(=O)O)cs1` [VIe, (2S,4R)-5-(4-Hydroxyphenyl)-4-(2-((9R,11R)-9-isopropyl-8-((2S,3S)-3-methyl-2-((R)-1-methylpiperidine-2-carboxamido)pentanoyl)-13-oxo-7,12-dioxa-8,14-diazaicosan-11-yl)thiazole-4-carboxamido)-2-methylpentanoic acid], the IC50 in test [1] is 8.22 nM; in test [2], 2.27 nM; in test [3] it was 4.77 nM; in test [4] (setting [5]) it was 0.295 nM; in test [4] (setting [6]), more than 100 nM. Moreover, the “C4-2 % Kill” value in test [1] turned out to be 94.4 ± 0.2%. Also, the “T47D % Kill” value in test [2] worked out at 72.7%. Besides, in test [3], the “HEK293 % Kill” value is given as 76.7%. Further, the “HCT-15 + verapamil % Kill” value in test [4] (with 5 ug/mL Verapamil) was 98.8%. In test [4] (without Verapamil), the “HCT-15 % Kill” value turned out to be 36.6%.
For `C#CCCCON(C(=O)[C@@H](NC(=O)[C@H]1CCCCN1C)[C@@H](C)CC)[C@H](C[C@@H](OC(=O)NCC)c1nc(C(=O)N[C@@H](Cc2ccc(N)cc2)CC(C)(C)C(=O)O)cs1)C(C)C` [VIf, (4S)-5-(4-Aminophenyl)-4-({2-[(1R,3R)-1-[(ethylcarbamoyl)oxy]-4-methyl-3-[(2S,3S)-3-methyl-2-{[(2R)-1-methylpiperidin-2-yl]formamido}-N-(pent-4-yn-1-yloxy)pentanamido]pentyl]-1,3-thiazol-4-yl}formamido)-2,2-dimethylpentanoic acid], the IC50 stood at 0.312 nM in test [1]; 0.302 nM in test [2]; 0.383 nM in test [3]; 0.0854 nM in test [4] (setting [5]); 2.06 nM in test [4] (setting [6]). The “C4-2 % Kill” value in test [1] is on record as 93.9%. Further, in test [2], the “T47D % Kill” value was 63.2%. The “HEK293 % Kill” value in test [3] came out at 85.6%. Moreover, the “HCT-15 + verapamil % Kill” value in test [4] (with 5 ug/mL Verapamil) is 98.8%. Besides, the “HCT-15 % Kill” value in test [4] (without Verapamil) was 99.1%.
As for `C#CCCCON(C(=O)[C@@H](NC(=O)[C@H]1CCCCN1C)[C@@H](C)CC)[C@H](C[C@@H](OC(C)=O)c1nc(C(=O)N[C@@H](Cc2ccc(F)cc2)CC(C)(C)C(=O)O)cs1)C(C)C` [Vd, (4S)-4-({2-[(1R,3R)-1-(Acetyloxy)-4-methyl-3-[(2S,3S)-3-methyl-2-{[(2R)-1-methylpiperidin-2-yl]formamido}-N-(pent-4-yn-1-yloxy)pentanamido]pentyl]-1,3-thiazol-4-yl}formamido)-5-(4-fluorophenyl)-2,2-dimethylpentanoic acid], the half-inhibitory concentration (IC50) in test [1] was found to be 0.384 nM; in test [2] it was 0.444 nM; in test [3], 0.59 nM; in test [4] (setting [5]), 0.352 nM; in test [4] (setting [6]), 1.93 nM. Further, the “C4-2 % Kill” value in test [1] amounted to 91.3%. Also, the “T47D % Kill” value in test [2] is 66%. The “HEK293 % Kill” value in test [3] amounted to 86.3%. The “HCT-15 + verapamil % Kill” value in test [4] (with 5 ug/mL Verapamil) is on record as 98.7%. Further, the “HCT-15 % Kill” value in test [4] (without Verapamil) was 99.7%.
Consider `C#CCCCON(C(=O)[C@@H](NC(=O)[C@H]1CCCCN1C)[C@@H](C)CC)[C@H](C[C@@H](OC(C)=O)c1nc(C(=O)N[C@@H](Cc2ccc(F)cc2)C[C@H](C)C(=O)O)cs1)C(C)C` [Vf, (2S,4R)-4-({2-[(1R,3R)-1-(Acetyloxy)-4-methyl-3-[(2S,3S)-3-methyl-2-{[(2R)-1-methylpiperidin-2-yl]formamido}-N-(pent-4-yn-1-yloxy)pentanamido]pentyl]-1,3-thiazol-4-yl}formamido)-5-(4-fluorophenyl)-2-methylpentanoic acid], for which the 50% inhibitory concentration (IC50) was 0.9 nM in test [1]; 0.396 nM in test [2]; 0.666 nM in test [3]; 0.375 nM in test [4] (setting [5]); 3.36 nM in test [4] (setting [6]). For the same molecule, in test [1], the “C4-2 % Kill” value is reported as 90%. For the same molecule, in test [2], the “T47D % Kill” value was 68%. Further, the “HEK293 % Kill” value in test [3] worked out at 83.8%. In addition, the “HCT-15 + verapamil % Kill” value in test [4] (with 5 ug/mL Verapamil) is listed as 98%. The “HCT-15 % Kill” value in test [4] (without Verapamil) amounted to 96.5%.
As to `CC[C@H](C)[C@H](NC(=O)[C@H]1CCCCN1C)C(=O)N(OCCCOCc1ccc(N)cc1)[C@H](C[C@@H](OC(C)=O)c1nc(C(=O)N[C@@H](Cc2ccc(O)cc2)C[C@H](C)C(=O)O)cs1)C(C)C` [Vj, (2S,4R)-4-(2-((8R,10R)-1-(4-Aminophenyl)-8-isopropyl-7-((2S,3S)-3-methyl-2-((R)-1-methylpiperidine-2-carboxamido)pentanoyl)-12-oxo-2,6,11-trioxa-7-azatridecan-10-yl)thiazole-4-carboxamido)-5-(4-hydroxyphenyl)-2-methylpentanoic acid], the concentration for half-maximal inhibition (IC50) was 53.1 nM in test [1]; more than 100 nM in test [2]; more than 100 nM in test [3]; 39.2 nM in test [4] (setting [5]); more than 100 nM in test [4] (setting [6]). Moreover, the “C4-2 % Kill” value in test [1] was 68.5 ± 39.2%. Also, the “T47D % Kill” value in test [2] is recorded as 14.6%. In addition, in test [3], the “HEK293 % Kill” value is recorded as 4.7%. The “HCT-15 + verapamil % Kill” value in test [4] (with 5 ug/mL Verapamil) is reported as 77.4%. The “HCT-15 % Kill” value in test [4] (without Verapamil) is recorded as −3.8%.

The term IC50 denotes the concentration needed to halve the response being measured.
